Experimental findings from ChEMBL document CHEMBL1153213, “Inhibition of CTP synthase from Escherichia coli by xanthines and uric acids” (Bioorg Med Chem Lett, 2010) are described below.

Active and inactive are the calls of the source. No cut-off for these calls is given here.

Usually IC50 stands for the concentration at which inhibition is half-maximal.

Assay [1] is described as follows: Inhibition of Escherichia coli recombinant N-terminal hexahistidine-tagged CTP synthetase expressed in Escherichia coli BL21 (DE3) assessed as inhibition of CTP formation in TAPS buffer at pH 8.5 by continuous spectrophotometric assay in presence of 10 mM L-glutamine and 0.15 mM GTP.
A short description of assay [2]: Inhibition of Escherichia coli recombinant N-terminal hexahistidine-tagged CTP synthetase expressed in Escherichia coli BL21 (DE3) assessed as inhibition of CTP formation in Hepes buffer at pH 8 by continuous spectrophotometric assay in presence of 10 mM L-glutamine and 0.15 mM GTP.
A short description of assay [3]: Inhibition of Escherichia coli recombinant N-terminal hexahistidine-tagged CTP synthetase expressed in Escherichia coli BL21 (DE3) assessed as inhibition of CTP formation in TAPS buffer at pH 8.5 by continuous spectrophotometric assay in presence of 150 mM NH4Cl.
Assay [4] can be described thus: Inhibition of Escherichia coli recombinant N-terminal hexahistidine-tagged CTP synthetase expressed in Escherichia coli BL21 (DE3) assessed as inhibition of CTP formation in Hepes buffer at pH 8 by continuous spectrophotometric assay in presence of 150 mM NH4Cl.
Assay [5] can be described thus: Inhibition of Escherichia coli recombinant N-terminal hexahistidine-tagged CTP synthetase expressed in Escherichia coli BL21 (DE3) assessed as inhibition of CTP formation by continuous spectrophotometric assay in presence of 150 mM NH4Cl.
Assay [6] in a line: Inhibition of Escherichia coli recombinant N-terminal hexahistidine-tagged CTP synthetase expressed in Escherichia coli BL21 (DE3) assessed as inhibition of CTP formation by continuous spectrophotometric assay in presence of 10 mM L-glutamine and 0.15 mM GTP.
Assay [7] relates to Escherichia coli. The assay is described as follows: Inhibition of Escherichia coli recombinant N-terminal hexahistidine-tagged CTP synthetase expressed in Escherichia coli BL21 (DE3) assessed as inhibition of CTP formation at 1 mM in presence of 1mM UTP.
Assay [8] relates to Escherichia coli. Kind of assay: Inhibition of Escherichia coli recombinant N-terminal hexahistidine-tagged CTP synthetase expressed in Escherichia coli BL21 (DE3) assessed as inhibition of CTP formation at 1 mM in presence of 1mM ATP.
Assay [9] is described as follows: Multisite inhibition of Escherichia coli recombinant N-terminal hexahistidine-tagged CTP synthetase expressed in Escherichia coli BL21 (DE3) assessed as inhibition of CTP formation in Hepes buffer at pH 8 in presence of 1.36 mM NH4Cl.
A short description of assay [10]: Multisite inhibition of Escherichia coli recombinant N-terminal hexahistidine-tagged CTP synthetase expressed in Escherichia coli BL21 (DE3) assessed as inhibition of CTP formation in Hepes buffer at pH 8 in presence of 0.54 mM NH4Cl.
A short description of assay [11]: Multisite inhibition of Escherichia coli recombinant N-terminal hexahistidine-tagged CTP synthetase expressed in Escherichia coli BL21 (DE3) assessed as inhibition of CTP formation in Hepes buffer at pH 8 in presence of 8.16 mM NH4Cl.
Assay [12] in a line: Multisite inhibition of Escherichia coli recombinant N-terminal hexahistidine-tagged CTP synthetase expressed in Escherichia coli BL21 (DE3) assessed as inhibition of CTP formation in Hepes buffer at pH 8 in presence of 5.44 mM NH4Cl.
The nature of assay [13]: Multisite inhibition of Escherichia coli recombinant N-terminal hexahistidine-tagged CTP synthetase expressed in Escherichia coli BL21 (DE3) assessed as inhibition of CTP formation in Hepes buffer at pH 8 in presence of 2.72 mM NH4Cl.

Turning to `O=c1[nH]c(=O)c2nc[nH]c2[nH]1` [XANTHINE], the IC50 was 160 µM in assay [1], 230 µM in assay [2], 220 µM in [3] and 370 µM in assay [4].
In the case of `Cn1c(=O)c2c(n(C)c1=O)n(C)c(=O)n2C`, the values for the IC50 in assay [5] (read-out: IC50) and in [6] (read-out: IC50) were 121 µM and 79 µM, respectively.
For the compound `Cn1cnc2c1c(=O)[nH]c(=O)n2C` [THEOBROMINE], the figures for the IC50 in [5] (read-out: IC50) and in assay [6] (read-out: IC50) were 580 µM and 420 µM, respectively.
`O=c1ccn([C@@H]2O[C@H](CO)[C@@H](O)[C@H]2O)c(=O)[nH]1` [URIDINE]: the IC50 is 4600 µM in assay [5] (read-out: IC50) and 3100 µM in assay [6] (read-out: IC50).
As for `Cn1c(=O)[nH]c2[nH]c(=O)n(C)c2c1=O`, the concentration for half-maximal inhibition (IC50) was 61 µM in [1], 113 µM in assay [2], 109 µM in assay [3] and 119 µM in assay [4].
Turning to `Cn1c(=O)c2nc[nH]c2n(C)c1=O` [THEOPHYLLINE], the IC50 was 300 µM in assay [1], 430 µM in assay [2], 400 µM in assay [3] and 550 µM in [4].
With `Cn1c(=O)c2[nH]c(=O)[nH]c2n(C)c1=O`, the IC50 in assay [1] came to 64 µM; in [2], 88 µM; in assay [3] it was 99 µM; in [4], 72 µM.
Take `Cn1c(=O)[nH]c2[nH]c(=O)[nH]c2c1=O`: the IC50 in [5] (read-out: IC50) stood at 96 µM; in assay [6] (read-out: IC50), 101 µM.
As to `Nc1[nH]cnc2ncnc1-2` [ADENINE], the figures for the IC50 in assay [5] (read-out: IC50) and in [6] (read-out: IC50) were 12900 µM and 15800 µM, respectively.
Turning to `Cn1c(=O)[nH]c(=O)c2c1[nH]c(=O)n2C`, the inhibition result in assay [7] and in assay [8] was “inactive” in each case. The IC50 in assay [5] (read-out: IC50) was found to be 90 µM; in assay [6] (read-out: IC50) it was 63 µM.
As to `O=C(O)Cc1cc(=O)[nH]c(=O)[nH]1`, the figures for the IC50 in assay [5] (read-out: IC50) and in assay [6] (read-out: IC50) were 3170 µM and 2600 µM, respectively.
In the case of `NC(=O)NC1NC(=O)NC1=O` (stereo unspecified) [ALLANTOIN], the IC50 entry in [5] and in assay [6] was “Not Active” each time.
Take `Cn1c(=O)c2c(ncn2C)n(C)c1=O` [CAFFEINE]: the IC50 in assay [9] was found to be 450 µM; in assay [10], 440 µM; in assay [11], 440 µM; in assay [12], 450 µM; in assay [5] (read-out: IC50) it was 510 µM; in [6] (read-out: IC50) it was 390 µM. The half-maximal inhibitory concentration (IC50) in assay [13] came to 420 µM. Moreover, the inhibition entry in assay [7] and in [8] was “inactive” throughout.
As to `O=c1cc[nH]c(=O)[nH]1` [URACIL], the half-inhibitory concentration (IC50) in assay [5] (read-out: IC50) was found to be 4700 µM; in assay [6] (read-out: IC50) it was 4200 µM.
In the case of `Nc1ncnc2c1ncn2[C@@H]1O[C@H](CO)[C@@H](O)[C@H]1O` [ADENOSINE], the half-inhibitory concentration (IC50) in assay [5] (read-out: IC50) is 11000 µM.
With `Cn1c(=O)c2c([nH]c(=O)n2C)n(C)c1=O`, the half-maximal inhibitory concentration (IC50) worked out at 70 µM in assay [5] (read-out: IC50) and 67 µM in assay [6] (read-out: IC50).
`Cn1c(=O)[nH]c2ncn(C)c2c1=O` [PARAXANTHINE]: the IC50 in assay [1] turned out to be 200 µM; in assay [2], 440 µM; in assay [3], 360 µM; in [4], 480 µM.
In the same order, the values of `Oc1nc(O)c2nc(O)[nH]c2n1` [URIC ACID] are 60 µM, 60 µM, 113 µM and 87 µM.
